Laboratory results published in patent US6998259B1, “Enzymatic treatment of whey proteins for the production of antihypertensive peptides and the resulting products” (Davisco Foods International, priority 1999, dated 2006).
Where two headings read alike, the source gives them in different places. Blank lines part the entries; values can stand above or below the substance they belong to. No end group written: not given here.

Tests used:
[1] = molecular target: T1, Angiotensin Converting Enzyme (from rabbit lung) (Oryctolagus cuniculus, UniProt P12822); assay: ACE-inhibitory activity, in vitro spectrophotometric assay (Cushman and Cheung, HHL substrate); assay type: biochemical
T1 construct: Angiotensin Converting Enzyme (from rabbit lung); purchased Sigma Chemical Co. (St. Louis, USA); host or cells: rabbit lung tissue
T1 sequence (P12822 34-1310): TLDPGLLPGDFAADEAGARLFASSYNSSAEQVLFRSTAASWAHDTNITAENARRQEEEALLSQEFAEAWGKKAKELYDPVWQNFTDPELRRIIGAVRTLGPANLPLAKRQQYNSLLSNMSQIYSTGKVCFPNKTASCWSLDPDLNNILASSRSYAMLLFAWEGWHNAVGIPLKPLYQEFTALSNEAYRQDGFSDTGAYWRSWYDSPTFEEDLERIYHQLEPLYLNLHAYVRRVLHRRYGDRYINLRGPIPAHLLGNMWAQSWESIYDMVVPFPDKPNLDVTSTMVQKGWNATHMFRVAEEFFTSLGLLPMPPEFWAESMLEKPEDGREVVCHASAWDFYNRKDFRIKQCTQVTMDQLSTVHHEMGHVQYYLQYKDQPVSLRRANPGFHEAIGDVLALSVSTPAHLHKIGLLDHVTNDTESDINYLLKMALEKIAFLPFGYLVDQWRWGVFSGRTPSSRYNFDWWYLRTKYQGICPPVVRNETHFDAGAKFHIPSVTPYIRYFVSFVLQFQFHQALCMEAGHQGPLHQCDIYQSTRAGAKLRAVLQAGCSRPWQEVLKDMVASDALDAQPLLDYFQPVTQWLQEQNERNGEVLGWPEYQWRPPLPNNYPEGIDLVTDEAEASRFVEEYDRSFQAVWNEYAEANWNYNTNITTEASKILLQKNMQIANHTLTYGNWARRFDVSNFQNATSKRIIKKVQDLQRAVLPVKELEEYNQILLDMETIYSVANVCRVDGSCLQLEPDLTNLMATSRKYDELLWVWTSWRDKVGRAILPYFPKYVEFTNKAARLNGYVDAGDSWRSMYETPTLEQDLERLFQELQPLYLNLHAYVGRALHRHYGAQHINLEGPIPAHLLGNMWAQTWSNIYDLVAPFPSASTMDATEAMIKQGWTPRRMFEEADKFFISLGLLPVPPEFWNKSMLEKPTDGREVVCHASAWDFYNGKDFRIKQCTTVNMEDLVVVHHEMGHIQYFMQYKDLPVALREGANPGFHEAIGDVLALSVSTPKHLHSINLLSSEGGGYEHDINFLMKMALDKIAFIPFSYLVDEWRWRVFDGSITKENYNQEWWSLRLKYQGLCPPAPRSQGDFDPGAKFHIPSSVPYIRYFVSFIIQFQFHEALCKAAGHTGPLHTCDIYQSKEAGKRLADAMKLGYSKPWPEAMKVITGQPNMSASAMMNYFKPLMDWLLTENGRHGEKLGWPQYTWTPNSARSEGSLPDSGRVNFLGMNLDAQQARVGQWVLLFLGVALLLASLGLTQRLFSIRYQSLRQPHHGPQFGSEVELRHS
Source text: Whey protein hydrolysate WPH 917 (84.5% protein w/w) was obtained from New Zealand Milk Product Inc. (Santa Rosa, USA). Whey protein hydrolysate LE80GF (80.0% w/w) was obtained from DMV International (New-York, USA). Whey protein isolate (BiPRO™) and β-lactoglobulin-rich product were obtained from Davisco Foods International (Le Sueur, Minn., USA). Purified peptidic sequence Ala-Leu-Pro-Met-His-Ile-Arg modelling the peptide f-142–148 from β-1g was chemically-synthetized by the Service de séquence de peptides de l'Est du Québec (Ste-Foy, Qc, Canada). HEPES Sodium salt, Hippuryl-L-Histidyl-L-Leucine, and Angiotensin Converting Enzyme (from rabbit lung) were purchased from Sigma Chemical Co. (St. Louis, USA). All other products used were analytical grade.
The ACE-inhibitory activity was measured in vitro by a spectrophotometric assay according to the method of Cushman and Cheung. (Cushman, D. N., Cheung, H. S. 1971 Spectrophotometric assay and properties of the angiotensin converting enzyme of rabbit lung. Biochemical Pharmacology, 20: 1637–1648.) According to this method, hippuric acid is liberated from hippuryl-L-histidyl-L-leucine (HHL) by the enzymatic reaction of ACE. After extraction by ethyl acetate and removal of ethyl acetate by heat evaporation, hippuric acid is dissolved in deionized water.
Inhibitory activity was calculated according to the following equation: Inhibitory activity (%)=[(Acontrol−Asample)/(Acontrol−Ablank)]×[…] 1 where A represents absorbance. A plot of the inhibitory activity (%) versus log10 of sample concentration (mg powder ml^−1) was generated using 6 different concentrations of samples for BIPRO™, AS-601 (BiPRO™β-1g), commercial hydrolysates (WPH 917, LE80GF) and of synthetic peptide (f142–148) from β-1g. Each concentration was tested in triplicate and the mean value was plotted in the curves. The IC50 value (expressed in terms of mg powder ml^−1, defined as the concentration of inhibitor which gives 50% inhibition of ACE activity, was calculated using the linear regression equations of the curves.

[2] = molecular target: ACE (Homo sapiens, UniProt P12821); details: cited from earlier work
Chain of ACE (P12821 30-1306, species assumed): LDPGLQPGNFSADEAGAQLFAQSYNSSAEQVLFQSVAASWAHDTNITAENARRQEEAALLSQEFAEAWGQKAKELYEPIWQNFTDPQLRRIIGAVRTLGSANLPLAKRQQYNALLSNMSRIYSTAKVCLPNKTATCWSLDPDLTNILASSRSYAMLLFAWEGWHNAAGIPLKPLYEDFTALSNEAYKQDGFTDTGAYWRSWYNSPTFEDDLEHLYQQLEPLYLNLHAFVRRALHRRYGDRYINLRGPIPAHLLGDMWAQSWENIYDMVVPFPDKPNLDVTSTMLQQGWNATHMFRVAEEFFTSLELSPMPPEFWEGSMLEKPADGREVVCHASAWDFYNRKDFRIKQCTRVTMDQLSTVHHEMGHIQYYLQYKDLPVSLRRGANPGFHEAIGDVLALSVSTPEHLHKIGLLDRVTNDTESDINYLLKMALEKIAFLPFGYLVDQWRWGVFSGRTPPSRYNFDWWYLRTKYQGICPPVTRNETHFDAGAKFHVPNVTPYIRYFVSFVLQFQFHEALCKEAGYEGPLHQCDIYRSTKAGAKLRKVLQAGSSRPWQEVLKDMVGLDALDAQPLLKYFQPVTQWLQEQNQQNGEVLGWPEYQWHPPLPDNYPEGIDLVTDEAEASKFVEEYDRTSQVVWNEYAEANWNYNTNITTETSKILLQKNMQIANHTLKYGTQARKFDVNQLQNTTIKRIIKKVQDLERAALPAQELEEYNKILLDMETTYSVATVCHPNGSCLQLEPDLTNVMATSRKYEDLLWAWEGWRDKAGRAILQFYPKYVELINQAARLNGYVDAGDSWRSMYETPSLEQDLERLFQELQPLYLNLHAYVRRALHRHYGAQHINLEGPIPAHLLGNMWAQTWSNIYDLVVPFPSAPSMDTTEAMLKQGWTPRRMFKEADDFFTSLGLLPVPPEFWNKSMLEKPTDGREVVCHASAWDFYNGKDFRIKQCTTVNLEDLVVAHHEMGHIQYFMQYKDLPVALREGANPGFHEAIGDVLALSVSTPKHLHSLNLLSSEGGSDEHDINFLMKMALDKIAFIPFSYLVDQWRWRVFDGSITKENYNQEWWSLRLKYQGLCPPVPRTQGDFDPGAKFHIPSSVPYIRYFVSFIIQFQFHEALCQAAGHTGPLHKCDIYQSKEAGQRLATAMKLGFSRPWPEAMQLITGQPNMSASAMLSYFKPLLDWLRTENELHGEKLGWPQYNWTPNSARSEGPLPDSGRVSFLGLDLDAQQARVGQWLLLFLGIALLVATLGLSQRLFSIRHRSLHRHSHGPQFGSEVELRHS

[3] = test system: spontaneously hypertensive rats; details: among nine identified peptide sequences; cited from earlier work
[4] = inhibitory activity (%) versus sample concentration (mg powder ml^−1)

Slope m of linear regression (y=m lnX+b) of the ACE-inhibitory activity curve [1, 4]: 10.35
Y-intercept b of linear regression (y=m lnX+b) of the ACE-inhibitory activity curve [1, 4]: 84.4
IC50 ([1]; rabbit lung ACE, HHL substrate, 37° C. for 20 min, 6 concentrations in triplicate, calculated from linear regression, read-out: IC50 (concentration of inhibitor which gives 50% inhibition of ACE activity) (converted)): 47.8 µM
Substance: ALPMHIR [β-1 g f142–148, Ala-Leu-Pro-Met-His-Ile-Arg]
IC50 ([2]; Mullally et al. 1997, read-out: IC50 (ACE inhibition)): 42.6 µM

Substance: peptide f23–34 from xsl casein: peptide f23–34 from casein (bovine, variant B), from tryptic casein hydrolysate (FFVAPFPEVFGK; Alpha-S1-casein; UniProt P02662 38-49, looked up, fragment)
IC50 ([2]; Maruyama and Suzuki, tryptic casein hydrolysate peptide, read-out: IC50 (concentration needed to inhibit 50% ACE activity)): 77 µM

Substance: β-lactoglobulin (f78–80): peptide fragment 78–80 of β-lactoglobulin from proteinase K digestion of cheese whey protein (Abubakar et al.) (IPA; UniProt P02754 94-96, looked up, fragment)
antihypertensive activity [3]: strongest antihypertensive activity
